Each block holds one compound with its values, some of them ahead of it.
System: Hs578T complex spheroid growth, percent test/control
Test: Anticancer human tumor Hs578T cell line growth inhibition [AhR];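 note: luminescent viability signal as a proxy for spheroid growth; spheroids exposed to agents for one week after three days of growth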
Details: for IC50: curve of first compound; for viability, T/C: stronger effect = lower value
Method in brief: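 Agents were dosed in half-log steps down from roughly clinical Cmax, or from 10 microM where Cmax was unknown, alone and with AhR antagonists. Read-out: percent test/control growth of tumor spheroids containing HUVEC and MSC stromal cells.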

[1] = second compound 0.1 µM, first compound 0.000949 µM
[2] = second compound 0.1 µM, first compound 0.003 µM
[3] = second compound 0.1 µM, first compound 0.00949 µM
[4] = second compound 0.1 µM, first compound 0.03 µM
[5] = second compound 0.1 µM, first compound 0.0949 µM
[6] = second compound 0.1 µM, first compound 0.3 µM
[7] = second compound 0.316 µM, first compound 0.000949 µM
[8] = second compound 0.316 µM, first compound 0.003 µM
[9] = second compound 0.316 µM, first compound 0.00949 µM
[10] = second compound 0.316 µM, first compound 0.03 µM
[11] = second compound 0.316 µM, first compound 0.0949 µM
[12] = second compound 0.316 µM, first compound 0.3 µM
[13] = second compound 1 µM, first compound 0.000949 µM
[14] = second compound 1 µM, first compound 0.003 µM
[15] = second compound 1 µM, first compound 0.00949 µM
[16] = second compound 1 µM, first compound 0.03 µM
[17] = second compound 1 µM, first compound 0.0949 µM
[18] = second compound 1 µM, first compound 0.3 µM
[19] = second compound 3.16 µM, first compound 0.000949 µM
[20] = second compound 3.16 µM, first compound 0.003 µM
[21] = second compound 3.16 µM, first compound 0.00949 µM
[22] = second compound 3.16 µM, first compound 0.03 µM
[23] = second compound 3.16 µM, first compound 0.0949 µM
[24] = second compound 3.16 µM, first compound 0.3 µM
[25] = second compound 10 µM, first compound 0.000949 µM
[26] = second compound 10 µM, first compound 0.003 µM
[27] = second compound 10 µM, first compound 0.00949 µM
[28] = second compound 10 µM, first compound 0.03 µM
[29] = second compound 10 µM, first compound 0.0949 µM
[30] = second compound 10 µM, first compound 0.3 µM
[31] = second compound 0.1 µM, first compound 0.0316 µM
[32] = second compound 0.1 µM, first compound 0.1 µM
[33] = second compound 0.1 µM, first compound 0.316 µM
[34] = second compound 0.1 µM, first compound 1 µM
[35] = second compound 0.1 µM, first compound 3.16 µM
[36] = second compound 0.1 µM, first compound 10 µM
[37] = second compound 0.316 µM, first compound 0.0316 µM
[38] = second compound 0.316 µM, first compound 0.1 µM
[39] = second compound 0.316 µM, first compound 0.316 µM
[40] = second compound 0.316 µM, first compound 1 µM
[41] = second compound 0.316 µM, first compound 3.16 µM
[42] = second compound 0.316 µM, first compound 10 µM
[43] = second compound 1 µM, first compound 0.0316 µM
[44] = second compound 1 µM, first compound 0.1 µM
[45] = second compound 1 µM, first compound 0.316 µM
[46] = second compound 1 µM, first compound 1 µM
[47] = second compound 1 µM, first compound 3.16 µM
[48] = second compound 1 µM, first compound 10 µM
[49] = second compound 3.16 µM, first compound 0.0316 µM
[50] = second compound 3.16 µM, first compound 0.1 µM
[51] = second compound 3.16 µM, first compound 0.316 µM
[52] = second compound 3.16 µM, first compound 1 µM
[53] = second compound 3.16 µM, first compound 3.16 µM
[54] = second compound 3.16 µM, first compound 10 µM
[55] = second compound 10 µM, first compound 0.0316 µM
[56] = second compound 10 µM, first compound 0.1 µM
[57] = second compound 10 µM, first compound 0.316 µM
[58] = second compound 10 µM, first compound 1 µM
[59] = second compound 10 µM, first compound 3.16 µM
[60] = second compound 10 µM, first compound 10 µM

IC50 (second compound 0.1 µM): 7 nM
IC50 (second compound 0.316 µM): 6.66 nM
IC50 (second compound 1 µM): 5.92 nM
IC50 (second compound 3.16 µM): 3.77 nM
IC50 (second compound 10 µM): < 0.949 nM
SMILES: CC(C)CC(NC(=O)C(Cc1ccccc1)NC(=O)c1cnccn1)B(O)O (stereo not given) + Cc1cncc(-c2nc(NCCc3c[nH]c4ccccc34)c3ncn(C(C)C)c3n2)c1
viability, T/C [1]: 101%
viability, T/C [2]: 101%
viability, T/C [3]: 31.8%
viability, T/C [4]: 0.32%
viability, T/C [5]: 0.25%
viability, T/C [6]: 0.36%
viability, T/C [7]: 112%
viability, T/C [8]: 101%
viability, T/C [9]: 27.3%
viability, T/C [10]: 0.39%
viability, T/C [11]: 0.31%
viability, T/C [12]: 0.31%
viability, T/C [13]: 97.8%
viability, T/C [14]: 86.5%
viability, T/C [15]: 24.8%
viability, T/C [16]: 0.28%
viability, T/C [17]: 0.19%
viability, T/C [18]: 0.29%
viability, T/C [19]: 69.4%
viability, T/C [20]: 58%
viability, T/C [21]: 17.3%
viability, T/C [22]: 0.24%
viability, T/C [23]: 0.24%
viability, T/C [24]: 0.28%
viability, T/C [25]: 5.56%
viability, T/C [26]: 6.44%
viability, T/C [27]: 1.16%
viability, T/C [28]: 0.57%
viability, T/C [29]: 0.26%
viability, T/C [30]: 0.36%

IC50 (second compound 0.1 µM): 136 nM
IC50 (second compound 0.316 µM): 197 nM
IC50 (second compound 1 µM): 115 nM
IC50 (second compound 3.16 µM): < 0.949 nM
IC50 (second compound 10 µM): < 0.949 nM
SMILES: CCc1c2c(nc3ccc(O)cc13)-c1cc3c(c(=O)n1C2)COC(=O)[C@]3(O)CC + Cc1cncc(-c2nc(NCCc3c[nH]c4ccccc34)c3ncn(C(C)C)c3n2)c1
viability, T/C [1]: 74.8%
viability, T/C [2]: 78.7%
viability, T/C [3]: 74.4%
viability, T/C [4]: 64.6%
viability, T/C [5]: 53.9%
viability, T/C [6]: 43.1%
viability, T/C [7]: 83.5%
viability, T/C [8]: 78.6%
viability, T/C [9]: 80.2%
viability, T/C [10]: 70.4%
viability, T/C [11]: 61.2%
viability, T/C [12]: 43.7%
viability, T/C [13]: 77.7%
viability, T/C [14]: 67.1%
viability, T/C [15]: 68.2%
viability, T/C [16]: 59.7%
viability, T/C [17]: 52.1%
viability, T/C [18]: 41.8%
viability, T/C [19]: 38.9%
viability, T/C [20]: 42.9%
viability, T/C [21]: 38.7%
viability, T/C [22]: 29%
viability, T/C [23]: 18.2%
viability, T/C [24]: 13.8%
viability, T/C [25]: 4.74%
viability, T/C [26]: 3.51%
viability, T/C [27]: 4.95%
viability, T/C [28]: 2.72%
viability, T/C [29]: 1.85%
viability, T/C [30]: 1%

IC50 (second compound 0.1 µM): > 10000 nM
IC50 (second compound 0.316 µM): > 10000 nM
IC50 (second compound 1 µM): > 10000 nM
IC50 (second compound 3.16 µM): > 10000 nM
IC50 (second compound 10 µM): < 31.6 nM
SMILES: COc1cc(Nc2ncc3c(n2)-c2ccc(Cl)cc2C(c2c(F)cccc2OC)=NC3)ccc1C(=O)O + Cc1cncc(-c2nc(NCCc3c[nH]c4ccccc34)c3ncn(C(C)C)c3n2)c1
viability, T/C [31]: 91.4%
viability, T/C [32]: 94.7%
viability, T/C [33]: 99.6%
viability, T/C [34]: 101%
viability, T/C [35]: 85.6%
viability, T/C [36]: 65.1%
viability, T/C [37]: 93.5%
viability, T/C [38]: 93.2%
viability, T/C [39]: 107%
viability, T/C [40]: 90.5%
viability, T/C [41]: 88.2%
viability, T/C [42]: 66.9%
viability, T/C [43]: 98.5%
viability, T/C [44]: 81.7%
viability, T/C [45]: 104%
viability, T/C [46]: 99.2%
viability, T/C [47]: 86.7%
viability, T/C [48]: 62.5%
viability, T/C [49]: 55.6%
viability, T/C [50]: 62.4%
viability, T/C [51]: 70.1%
viability, T/C [52]: 59.4%
viability, T/C [53]: 61.1%
viability, T/C [54]: 53.3%
viability, T/C [55]: 6.12%
viability, T/C [56]: 5.86%
viability, T/C [57]: 6.53%
viability, T/C [58]: 6.24%
viability, T/C [59]: 8.49%
viability, T/C [60]: 12.8%

IC50 (second compound 0.1 µM): 1980 nM
IC50 (second compound 0.316 µM): 2150 nM
IC50 (second compound 1 µM): 1820 nM
IC50 (second compound 3.16 µM): 460 nM
IC50 (second compound 10 µM): < 31.6 nM
SMILES: Nc1ccccc1NC(=O)c1ccc(CNC(=O)OCc2cccnc2)cc1 + Cc1cncc(-c2nc(NCCc3c[nH]c4ccccc34)c3ncn(C(C)C)c3n2)c1
viability, T/C [31]: 118%
viability, T/C [32]: 115%
viability, T/C [33]: 115%
viability, T/C [34]: 80.9%
viability, T/C [35]: 28.6%
viability, T/C [36]: 2.58%
viability, T/C [37]: 126%
viability, T/C [38]: 116%
viability, T/C [39]: 116%
viability, T/C [40]: 87.5%
viability, T/C [41]: 30.9%
viability, T/C [42]: 2.84%
viability, T/C [43]: 109%
viability, T/C [44]: 106%
viability, T/C [45]: 107%
viability, T/C [46]: 76.5%
viability, T/C [47]: 25.1%
viability, T/C [48]: 2.17%
viability, T/C [49]: 72%
viability, T/C [50]: 69.9%
viability, T/C [51]: 55.5%
viability, T/C [52]: 36.5%
viability, T/C [53]: 10.7%
viability, T/C [54]: 0.49%
viability, T/C [55]: 4.97%
viability, T/C [56]: 4.48%
viability, T/C [57]: 2.94%
viability, T/C [58]: 3.5%
viability, T/C [59]: 0.48%
viability, T/C [60]: 0.4%

IC50 (second compound 0.1 µM): 2280 nM
IC50 (second compound 0.316 µM): 2570 nM
IC50 (second compound 1 µM): 2330 nM
IC50 (second compound 3.16 µM): 750 nM
IC50 (second compound 10 µM): < 31.6 nM
SMILES: O=C(C=Cc1cccc(S(=O)(=O)Nc2ccccc2)c1)NO + Cc1cncc(-c2nc(NCCc3c[nH]c4ccccc34)c3ncn(C(C)C)c3n2)c1
viability, T/C [31]: 122%
viability, T/C [32]: 110%
viability, T/C [33]: 106%
viability, T/C [34]: 75.6%
viability, T/C [35]: 39.8%
viability, T/C [36]: 2.43%
viability, T/C [37]: 103%
viability, T/C [38]: 116%
viability, T/C [39]: 93.8%
viability, T/C [40]: 79.6%
viability, T/C [41]: 44%
viability, T/C [42]: 2.11%
viability, T/C [43]: 113%
viability, T/C [44]: 101%
viability, T/C [45]: 98.9%
viability, T/C [46]: 77.2%
viability, T/C [47]: 39.9%
viability, T/C [48]: 1.72%
viability, T/C [49]: 76.3%
viability, T/C [50]: 63.8%
viability, T/C [51]: 63.1%
viability, T/C [52]: 46.8%
viability, T/C [53]: 26.2%
viability, T/C [54]: 0.97%
viability, T/C [55]: 7.33%
viability, T/C [56]: 7.26%
viability, T/C [57]: 4.94%
viability, T/C [58]: 2.69%
viability, T/C [59]: 1.35%
viability, T/C [60]: 0.35%

IC50 (second compound 0.1 µM): > 10000 nM
IC50 (second compound 0.316 µM): > 10000 nM
IC50 (second compound 1 µM): > 10000 nM
IC50 (second compound 3.16 µM): > 10000 nM
IC50 (second compound 10 µM): < 31.6 nM
SMILES: O=C(c1cc(Cc2n[nH]c(=O)c3ccccc23)ccc1F)N1CCN(C(=O)C2CC2)CC1 + Cc1cncc(-c2nc(NCCc3c[nH]c4ccccc34)c3ncn(C(C)C)c3n2)c1
viability, T/C [31]: 122%
viability, T/C [32]: 120%
viability, T/C [33]: 119%
viability, T/C [34]: 114%
viability, T/C [35]: 103%
viability, T/C [36]: 94.8%
viability, T/C [37]: 116%
viability, T/C [38]: 118%
viability, T/C [39]: 132%
viability, T/C [40]: 131%
viability, T/C [41]: 114%
viability, T/C [42]: 107%
viability, T/C [43]: 107%
viability, T/C [44]: 117%
viability, T/C [45]: 122%
viability, T/C [46]: 105%
viability, T/C [47]: 103%
viability, T/C [48]: 97.7%
viability, T/C [49]: 74.7%
viability, T/C [50]: 68.6%
viability, T/C [51]: 77.9%
viability, T/C [52]: 60.3%
viability, T/C [53]: 55.9%
viability, T/C [54]: 69.2%
viability, T/C [55]: 7.27%
viability, T/C [56]: 8.04%
viability, T/C [57]: 6.95%
viability, T/C [58]: 6.36%
viability, T/C [59]: 5.59%
viability, T/C [60]: 7.04%

Reference: PubChem BioAssay AID1919010 (Molecular Pharmacology Branch, DTP, NCI, 2023)
